Data from ChEMBL document CHEMBL1145707, “Methyl 4-hydroxy-3-(3'-methyl-2'-butenyl)benzoate, major insecticidal principle from Piper guanacastensis” (1997).
Values after ≈ are worked out from the molar mass of the structure shown.

Tested on: Aedes atropalpus
Assay: Insecticidal activity against Aedes atropalpus second-instar larvae after 24 hrs
Format: functional

SMILES	LC50
COC(=O)c1ccc(O)c(CC=C(C)C)c1	20.5 µg/mL (≈ 93.1 µM)
CCOC(=O)c1ccc(O)c(CC=C(C)C)c1	25.7 µg/mL (≈ 110 µM)
